Tests used:
Assay type in all cases: cell-based
[1] = system: Respiratory syncytial virus recombinant with luciferase (RSV-Luc5) in HEp-2 cells; experiment: HEp-2 RSV-Luc5 384-well assay (EC50 RSVFLUC Hep2-384 v2, Example V); conditions: human respiratory syncytial virus, HEp-2, 72 h, read-out: RSV Hep-2 FLuc EC50 (v2) (nM) (per Ex. V)
Text: (§1) HEp-2 cell line was purchased from ATCC (Manassas, VA Cat #CCL-23) and maintained in Dulbecco's […] (DMEM) (Corning, New York, NY, Cat #15-018CM) supplemented with 10% fetal bovine serum (FBS) (Hyclone, Logan, UT, Cat #SH30071-03) and 1× Penicillin-Streptonycin-L-Glutamine (Corning, New York, NY, Cat #30-009-CI). Cells were passaged 2 times per week to maintain sub-confluent densities and were used for experiments at passage 5-20. Respiratory syncytial virus recombinant with luciferase (RSV-Luc5) (≥1×107 TCID50/ml) was purchased from Microbiologics (Saint Cloud, MN). Viral replication was determined in HEp-2 cells in the following manner.
Compounds are prepared in 100% DMSO in 384-well polypropylene plates (Greiner, Monroe, NC, Cat #784201) with 8 compounds per plate in grouped replicates of 4 at 10 serially diluted concentrations (1:3). The serially diluted compounds were transferred to low dead volume Echo plates (Labcyte, Sunnyvale, CA, Cat #LP-0200).
The test compounds were spotted to 384-well assay plates (Greiner, Monroe, NC, Cat #781091) at 200 nL per well. HEp-2 cells were harvested and suspended in DMEM (supplemented with 10% FBS and 1× Penicillin-Streptomycin-L-Glutamine) and seeded to the pre-spotted assay plates at 4,000 cells per well in 30 μL. RSV-Luc5 viruses were diluted in DMEM (supplemented with 10% FBS and 1× Penicillin-Streptomycin-L-Glucamine) at 200,000 Infectious Units (IU) per mL and 10 μL per well was added to the assay plates containing cells and compounds, for an MOI=0.5. The assay plates were incubated for 3 days at 37° C. and 5% CO2. At the end of incubation, One-Glo reagent (Promega, Madison, WI, Cat #E6120) was prepared. The assay plates and One-Glo reagent were equilibrated to room temperature for at least 15 minutes. 40 μL per well of One-Glo reagent was added and the plates were incubated at room temp for 15 minutes before reading the luminescence signal on an EnVision multimode plate reader (Perkin Elmer, Waltham, MA). Remdesivir was used as positive control and DMSO was used as negative control. Values were normalized to the positive and negative controls (as 0% and 100% replication, respectively) and data was fitted using non-linear regression analysis by Gilead's dose response tool. The EC50 value for each compound was then determined as the concentration reducing the viral replication by 50%.

[2] = system: Respiratory syncytial virus recombinant with luciferase (RSV-Luc5) in HEp-2 cells; experiment: HEp-2 RSV-Luc5 384-well assay (EC50 RSVFLUC Hep2-384, Example R); conditions: human respiratory syncytial virus, HEp-2, 72 h, read-out: RSV Hep-2 FLuc EC50 (nM) (per Ex. R)
Text: as §1, with “Penicillin-Streptornycin-L-Glutamine” for “Penicillin-Streptonycin-L-Glutamine”, “(RSV-Luc5) direct pelleted virus” for “(RSV-Luc5)”
Compounds are prepared in 384-well polypropylene plates (Greiner, Monroe, NC, Cat #784201) with 8 compounds per plate in grouped replicates of 4 at 10 serially diluted concentrations (1:3).
HEp-2 cells were suspended in DMEM (supplemented with 10% FBS and 1×Penicillin-Streptonycin-L-Glutimine) and 60 μL of 4,000 cells per well were seeded into 384-well plates (Greiner, Monroe, NC, Cat #781080) using Biotek MultiFlo dispenser. After overnight incubation at 37° C. and 5% CO2, 0.4 uL of three-fold serial dilutions of compound was added to each well using a Biomek FX pipette station. RSV-Luc5 viruses were diluted in DMEM (supplemented with 10% FBS and 1× Penicillin-Streptonycin-L-Glutainie) at an MOI=0.5. Virus suspension was added to each 384-well compound plate at 20 uL per well using a Biotek MultiFlo dispenser. The assay plates were incubated for 3 days at 37° C. and 5% CO2. At the end of incubation, One-Glo reagent (Promega, Madison, WI, Cat #E6120) was prepared. The assay plate and the reagent were equilibrated to room temperature for 30 minutes. 50 uL per well of medium was removed from assay plate and 40 uL per well of One-Glo reagent was added to each plate by Biomek FX. The plates were sat at room temp for 15 minutes. Viral replication was then assessed by measuring luminescence signal using and Envision plate reader. Remdesivir was used as positive control and DMSO was used as negative control. Values were normalized to the positive and negative controls (as 0% and 100% replication, respectively) and data was fitted using non-linear regression analysis by Gilead's dose response tool. The EC50 value for each compound was then determined as the concentration reducing the viral replication by 50%.

[3] = RSV HEP2-CC50-384-V2 (per Ex. V); conditions: human
[4] = system: Recombinant Respiratory Syncytial virus strain A2 containing the firefly luciferase reporter (RSV-Fluc) in NHBE cells; experiment: RSV NHBE FLuc EC50 (Example I); conditions: human respiratory syncytial virus, 72 h, read-out: RSV NHBE FLuc EC50 (nM) (per Ex. I)
Text: Normal human bronchial epithelial (NHBE) cells are purchased from Lonza (Walkersville, MD Cat #CC-2540) and maintained in Bronchial Epithelial Cell Growth Medium (BEGM) (Lonza, Walkersville, MD, Cat #CC-3170) with all provided supplements in the BulletKit. Cells are passaged 2-3 times per week to maintain sub-confluent densities and are used for experiments at passages 2-4.
Recombinant Respiratory Syncytial virus strain A2 containing the firefly luciferase reporter between the P and M genes (RSV-Fluc, 6.3×10^6 TCID50/mL) is purchased from Viratree (Durham, NC, Cat #R^145).
NHBE cells (5×10^3/well) are seeded in 100 μL white wall/clear bottom 96-well plates (Corning) with culture medium and are incubated for 24 hours at 37° C. with 5% CO2. On the following day, three-fold serial dilutions of compounds prepared in DMSO are added to the wells using the HP D300e digital dispenser with normalization to the highest concentration of DMSO in all wells. The cells are then infected with RSV-Fluc diluted with BEGM media at an MOI of 0.1 for a final volume of 200 μL media/well. Uninfected and untreated wells are included as controls to determine compound efficacy against RSV-Fluc. Following incubation with compound and virus for three days at 37° C. with 5% CO2, 100 μL of culture supernatant is removed from each well and replaced with 100 μL of ONE-Glo luciferase reagent (Promega, Madison, WI, Cat #E6110). The plates are gently mixed by rocking for 10 minutes at 21° C. and luminescence signal is measured using an Envision plate reader (PerkinElmer). Values are normalized to the uninfected and infected DMSO controls (0% and 100% infection, respectively). Non-linear regression analysis is applied to determine the compound concentration at which 50% luminescence signal is reduced (EC50) using the XLfit4 add-in for MICROSOFT®EXCEL®. All experiments are performed in duplicate with two technical repeats each.

Row | Structure (SMILES) | EC50 [1] [nM] | EC50 [2] [nM] | CC50 at 3 days [3] [nM] | EC50 [4] [nM]
1 | CCCCCCCCCCCCCCCCCCOC[C@H](COP(=O)(O)OC[C@@]1(C#N)O[C@@H](c2ccc3c(N)ncnn23)[C@H](O)[C@@H]1O)OCc1ccc(OC)c(C#N)c1 [Compound 9, ((2R,3S,4R,5S)-5-(4-aminopyrrolo[2,1-f][1,2,4]triazin-7-yl)-2-cyano-3,4-dihydroxytetrahydrofuran-2-yl)methyl ((R)-2-((3-cyano-4-methoxybenzyl)oxy)-3-(octadecyloxy)propyl) hydrogen phosphate] | 145 | 53 | > 48500 | 
2 | CCCCCCCCCCCCCCCCCCC[C@H](COP(=O)(O)OC[C@@]1(C#N)O[C@@H](c2ccc3c(N)ncnn23)[C@H](O)[C@@H]1O)OCc1ccc(C#N)c(OC)c1 [Compound 27, ((2R,3S,4R)-5-(4-aminopyrrolo[2,1-f][1,2,4]triazin-7-yl)-2-cyano-3,4-dihydroxytetrahydrofuran-2-yl)methyl ((R)-2-((4-cyano-3-methoxybenzyl)oxy)henicosyl) hydrogen phosphate] |  | 232 |  | 42
3 | CCCCCCCCCCCCCCCCCCOC[C@H](COP(=O)(O)OC[C@@]1(C#N)O[C@@H](c2ccc3c(N)ncnn23)[C@H](O)[C@@H]1O)Oc1cccc(C#N)c1 [Compound 50, ((2R,3S,4R,5S)-5-(4-aminopyrrolo[2,1-f][1,2,4]triazin-7-yl)-2-cyano-3,4-dihydroxytetrahydrofuran-2-yl)methyl ((R)-2-(3-cyanophenoxy)-3-(octadecyloxy)propyl) hydrogen phosphate] | 91 | 12 | > 50000 | 18
4 | CCCCCCCCCCCCCCCCCCOC[C@H](COP(=O)(O)OC[C@@]1(C#N)O[C@@H](c2ccc3c(N)ncnn23)[C@H](O)[C@@H]1O)OCc1cncc(C#N)c1 [Compound 66, ((2R,3S,4R)-5-(4-aminopyrrolo[2,1-f][1,2,4]triazin-7-yl)-2-cyano-3,4-dihydroxytetrahydrofuran-2-yl)methyl ((R)-2-((5-cyanopyridin-3-yl)methoxy)-3-(octadecyloxy)propyl) hydrogen phosphate] | 56 | 21 | 49100 | 50
5 | CCCCCCCCCCCCCCCCCCOC[C@@H](COP(=O)(O)OC[C@@]1(C#N)O[C@@H](c2ccc3c(N)ncnn23)[C@H](O)[C@@H]1O)OCc1ccc(C#N)cc1OC [Compound 67, ((2R,3S,4R)-5-(4-aminopyrrolo[2,1-f][1,2,4]triazin-7-yl)-2-cyano-3,4-dihydroxytetrahydrofuran-2-yl)methyl ((S)-2-((4-cyano-2-methoxybenzyl)oxy)-3-(octadecyloxy)propyl) hydrogen phosphate] |  | 229 |  | 28
6 | CCCCCCCCCCCCCCOC[C@H](COP(=O)(O)OC[C@@]1(C#N)O[C@@H](c2ccc3c(N)ncnn23)[C@H](O)[C@@H]1O)Oc1ccc(C#N)nc1 [Compound 77, ((2R,3S,4R)-5-(4-aminopyrrolo[2,1-f][1,2,4]triazin-7-yl)-2-cyano-3,4-dihydroxytetrahydrofuran-2-yl)methyl ((R)-2-((6-cyanopyridin-3-yl)oxy)-3-(tetradecyloxy)propyl) hydrogen phosphate] | 90 | 222 | > 50000 | 12

From patent publication US20250034182A1, “PHOSPHOLIPID COMPOUNDS AND METHODS OF MAKING AND USING THE SAME” (priority 2021, published 2025)
